Test results reported in ChEMBL document CHEMBL1201862, “PubChem BioAssay data set” (2004).
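Dose response: 5 concentrations. Exposure: 48 h. Format: 96-well plates. Endpoint: linear interpolation; highest concentration if not reached. At the GI50, growth is halved.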 Activity calls are given as the source filed them. No stated cut-off is given here; in the data, active = GI50 up to about 1.1 µM and inactive = higher.

Legend:
Experiment in all cases: growth of human tumour cells (NCI), 48 h
NCI-H226 = tested on: NCI-H226
K562 = tested on: K562
TK-10 = tested on: TK-10
MOLT-4 = tested on: MOLT-4
EKVX = tested on: EKVX
SNB-75 = tested on: SNB-75
SF-539 = tested on: SF-539
SF-268 = tested on: SF-268
SK-OV-3 = tested on: SK-OV-3
UACC-257 = tested on: UACC-257
COLO 205 = tested on: COLO 205
SK-MEL-5 = tested on: SK-MEL-5
HOP-92 = tested on: HOP-92
OVCAR-5 = tested on: OVCAR-5
RXF 393 = tested on: RXF 393

Measured: GI50

CCOC(=O)CC(NC(=O)c1nc[nH]c1[N+](=O)[O-])C(=O)OCC (stereo not given)
inactive: NCI-H226 23 µM | K562 38.2 µM | TK-10 24 µM | MOLT-4 43.1 µM | EKVX 50.1 µM | SNB-75 > 100 µM | SF-539 59.6 µM | SF-268 40.6 µM | SK-OV-3 > 100 µM | UACC-257 34.1 µM | COLO 205 49.2 µM | SK-MEL-5 56 µM

O=C(NC12CC3CC(CC(C3)C1)C2)C(=O)c1c[nH]c2ccccc12
inactive: NCI-H226 > 10 µM | K562 5.77 µM | TK-10 27 µM | MOLT-4 12.2 µM | EKVX 17.6 µM | SNB-75 > 10 µM | SF-539 13.6 µM | SF-268 16.6 µM | SK-OV-3 16 µM | HOP-92 15.1 µM | UACC-257 12.9 µM | COLO 205 18.7 µM | OVCAR-5 17.9 µM | SK-MEL-5 15.4 µM

CC1=C(SC#N)S(=O)(=O)N(c2ccccc2)C(C)=C1SC#N
inactive: NCI-H226 36.2 µM | K562 21 µM | TK-10 > 100 µM | MOLT-4 20 µM | SNB-75 27 µM | SF-539 43.3 µM | SF-268 69.2 µM | RXF 393 21.8 µM | SK-OV-3 38.2 µM | HOP-92 3.63 µM | UACC-257 32 µM | OVCAR-5 39.4 µM | SK-MEL-5 42 µM

CCOC(=O)c1nc(-c2ccccc2)oc1OCC
inactive: NCI-H226 > 100 µM | K562 74.1 µM | TK-10 > 100 µM | MOLT-4 60.7 µM | EKVX 21 µM | SNB-75 > 100 µM | SF-539 > 100 µM | SF-268 > 100 µM | RXF 393 > 100 µM | SK-OV-3 > 100 µM | COLO 205 > 100 µM | SK-MEL-5 > 100 µM

CCCCCCCCCCCC(=O)OCC1OC(OC)C(NC(=O)N(CCCl)N=O)C(O)C1O (stereo not given)
inactive: NCI-H226 23 µM | K562 10.3 µM | TK-10 25.7 µM | MOLT-4 1.69 µM | SNB-75 14.1 µM | SF-539 2.96 µM | SF-268 2.32 µM | RXF 393 13.3 µM | UACC-257 14.3 µM | COLO 205 21.9 µM | OVCAR-5 20.4 µM | SK-MEL-5 13.1 µM

CCOC(=O)NC(=O)c1cn(CC(=O)NCC(=O)NCC(=O)NCCCN2CCN(CCCNC(=O)CNC(=O)CNC(=O)Cn3cc(C(=O)NC(=O)OCC)c(=O)[nH]c3=O)CC2)c(=O)[nH]c1=O
inactive: K562 > 100 µM | TK-10 > 100 µM | MOLT-4 > 100 µM | SNB-75 > 100 µM | SF-539 > 100 µM | SF-268 > 100 µM | SK-OV-3 > 100 µM | HOP-92 > 100 µM | UACC-257 > 100 µM | COLO 205 > 100 µM | OVCAR-5 > 100 µM | SK-MEL-5 > 100 µM

O=C(/C=C\c1cccc2ccccc12)c1ccc(Br)cc1
inactive: NCI-H226 50.7 µM | K562 18.1 µM | TK-10 51.3 µM | MOLT-4 31 µM | EKVX 24 µM | SNB-75 21.7 µM | SF-539 22.3 µM | SF-268 23.7 µM | SK-OV-3 30.7 µM | HOP-92 36.5 µM | UACC-257 22.3 µM | COLO 205 31.1 µM | OVCAR-5 18 µM | SK-MEL-5 19.7 µM

Cc1cc(O)nc(NNC(C#N)c2c(O)ccc3ccccc23)n1 (stereo not given)
inactive: NCI-H226 4.14 µM | K562 3.68 µM | TK-10 9.06 µM | MOLT-4 2.34 µM | SNB-75 15 µM | SF-539 3.85 µM | SF-268 2.28 µM | RXF 393 10.4 µM | SK-OV-3 7.08 µM | HOP-92 19.1 µM | UACC-257 3.64 µM | COLO 205 22.4 µM | OVCAR-5 16.7 µM | SK-MEL-5 2.99 µM

COC(=O)CCCCCOS(=O)(=O)c1ccc(C)cc1
inactive: K562 > 100 µM | TK-10 > 100 µM | MOLT-4 78.7 µM | EKVX > 100 µM | SNB-75 > 100 µM | SF-539 > 100 µM | SF-268 > 100 µM | RXF 393 > 100 µM | SK-OV-3 > 100 µM | HOP-92 > 100 µM | UACC-257 > 100 µM | COLO 205 > 100 µM | OVCAR-5 > 100 µM | SK-MEL-5 > 100 µM

N/N=C(/C(=O)Nc1cccc(Cl)c1)C(C(=O)c1ccc(O)cc1O)C1OC(=O)c2ccccc21 (stereo not given)
inactive: NCI-H226 95.1 µM | K562 > 100 µM | TK-10 > 100 µM | MOLT-4 31.8 µM | EKVX > 100 µM | SF-539 > 100 µM | SF-268 51.4 µM | SK-OV-3 > 100 µM | UACC-257 > 100 µM | COLO 205 > 100 µM | OVCAR-5 > 100 µM | SK-MEL-5 > 100 µM

COc1ccc(CNc2cc(OC)c(OC)c(OC)c2)cc1
inactive: NCI-H226 7.5 µM | K562 2.18 µM | MOLT-4 3.98 µM | EKVX 14.6 µM | SNB-75 5.57 µM | SF-539 6.21 µM | SF-268 3.43 µM | RXF 393 5.89 µM | SK-OV-3 5.65 µM | HOP-92 7.48 µM | UACC-257 7.21 µM | COLO 205 2.84 µM | OVCAR-5 > 25.3 µM | SK-MEL-5 3.35 µM

O=C1CCN2CCC(=O)c3c2c(cc2ccccc32)N1
inactive: NCI-H226 > 100 µM | K562 > 100 µM | TK-10 > 100 µM | MOLT-4 > 100 µM | EKVX > 100 µM | SNB-75 > 100 µM | SF-539 > 100 µM | SF-268 > 100 µM | RXF 393 44.7 µM | SK-OV-3 > 100 µM | UACC-257 > 100 µM | COLO 205 > 100 µM | OVCAR-5 > 100 µM | SK-MEL-5 > 100 µM

O=C1CCC2(O)c3ccccc3C2Cc2ccccc21 (stereo not given)
inactive: NCI-H226 > 100 µM | K562 > 100 µM | TK-10 > 100 µM | MOLT-4 > 100 µM | EKVX > 100 µM | SNB-75 63.8 µM | SF-539 > 100 µM | SF-268 > 100 µM | RXF 393 > 100 µM | HOP-92 70.1 µM | UACC-257 > 100 µM | COLO 205 > 100 µM

COC(=O)C1CCC(C)CC1=O (stereo not given)
inactive: K562 > 100 µM | TK-10 > 100 µM | MOLT-4 > 100 µM | EKVX > 100 µM | SNB-75 > 100 µM | SF-539 > 100 µM | SF-268 > 100 µM | RXF 393 > 100 µM | SK-OV-3 > 100 µM | HOP-92 > 100 µM | UACC-257 > 100 µM | COLO 205 > 100 µM | OVCAR-5 > 100 µM | SK-MEL-5 > 100 µM

CCOC(=O)[C@H]1Nc2ccc([N+](=O)[O-])cc2C2c3ccccc3CC21 (stereo not given in full)
inactive: NCI-H226 19.1 µM | K562 3.89 µM | TK-10 27.4 µM | MOLT-4 5.12 µM | SNB-75 26 µM | SF-539 17.3 µM | SF-268 16.5 µM | RXF 393 4.53 µM | UACC-257 18.7 µM | COLO 205 30.9 µM | OVCAR-5 16.6 µM | SK-MEL-5 13.1 µM
